Assay results as given in patent US20080015224A1, “Nitroxide superoxide dismutase mimetics to treat extracellular superoxide dismutase deficiencies” (priority 2006, published 2008).
“Also recorded” adds a separate entry of the source. Where no end group is shown, it is not given here.

How the values were obtained:
[1] = measured previously in the literature; cited from earlier work
[2] = test system: O2−. generated by xanthine plus xanthine oxidase; assay: Inhibition of O2−. generated by xanthine-xanthine oxidase in vitro (SOD mimetic activity, lucigenin chemiluminescence); type: biochemical; conditions: for Maximum inhibition, %: O2−. generated by xanthine-xanthine oxidase in vitro, means ± SE, 5 studies; for O2−. generated by a xanthine-xanthine oxidase reaction extinguished: tested in PBS at 10^−4 M
Procedure: (§1) The SOD activities of Ns were evaluated in vitro for their efficacy in dampening O2^−. generated by xanthine (25 μmol/l) plus xanthine oxidase (9 IU/ml). Their lipid solubility was assessed by shaking the Ns in a 50:50 mixture of PBS (Ambion, Austin, Tex.) and chloroform (CHCl3; EM Science, Gibbstown, N.J.), taking an aliquot of the PBS phase, evaporating the CHCl3phase to dryness, reconstituting it in PBS, and assessing the SOD activities in the two solutions. O2^−. was assessed by chemiluminescence with 5 μM lucigenin (AutoLumatPlus LB 953; EG&G, Berthold, Germany). The reduction in the stable peak value for chemiluminescence for each N, relative to vehicle, defined the SOD mimetic activity.
SOD activity by the nitroxides was assessed in vitro (Table 1). […] The ratio of the activity that partitioned into CHCl3 compared with PBS was examined.

cell membranes = conditions: cited from earlier work
[3] = test system: spontaneously hypertensive rat (SHR); assay: Acute antihypertensive response (MAP, HR) to graded intravenous doses in anesthetized SHR; type: in vivo; conditions: for acute change in MAP and HR: graded intravenous doses (nitroxides 17-270 μmol/kg; SOD 34-540 U/kg); for ED50 (sensitivity) for changes in MAP and HR: intravenous
Procedure: Experiments were approved by the Georgetown University Animal Care and Use Committee. Male SHR weighing 250-350 g (Taconic, Germantown, N.Y.) were anesthetized with thiobutabarbital (Inactin; Sigma, St. Louis, Mo.) (10 mg/100 g) after halothane (Halocarbon Laboratories, River Edge, N.J.) induction. Rats received 0.9% NaCl at 2 ml/h IV up to the time of receiving drugs to maintain euvolemia. A femoral artery was cannulated with polyethelene (PE)-50 tubing connected to a digital blood pressure analyzer (Micro-Med, Louisville, Ky.). Animals were equilibrated for 45 min. Thereafter, a nitroxide (17 μmol/kg) was infused intravenously over 10 s. The mean arterial pressure (MAP) and heart rate (HR) were recorded over the first 5 min and at 10 and 15 min. This was followed by doses of 54, 72, 174, and 270 μmol/kg under similar conditions. The same protocol was followed with each nitroxide: T, 4-oxo-tempo (OT), 4-amino-tempo (AT), 3-carboxy-peroxyl (3-CTPY) (Aldrich, Milwaukee, Wis.), 3-carbomyl-proxyl (3-CP) (Sigma), and 4-trimethylammonium-2,2,6,6,-tetramethylpiperidine-1-oxyl iodide (CAT-1) (Molecular Probes, Eugene, Oreg.) (FIG. 3). Doses of bovine Cu/Zn SOD (MW 32,500; Oxis Research, Portland, Oreg.) were selected that had equivalent SOD mimetic activity in vitro to the doses of T used for intravenous studies: 34, 110, 140, 260, 350, and 540 U/kg. SOD injection followed a similar protocol to the nitroxides and was compared with vehicle-injected rats. Additional rats received injections of previously boiled SOD as a further control group. Six rats were studied in each group.
The mean±SE changes in MAP and HR were calculated from the individual dose-response relations. The responsiveness was the maximum effect, and the sensitivity was the expected dose for ED50. Data were analyzed by ANOVA with post hoc testing by the Dunnett test, where appropriate. Statistical significance was taken as P<0.05.

[4] = cited from earlier work
[5] = Lipid solubility: partition of SOD activity between CHCl3 and PBS; type: physicochemical; conditions: 50:50 PBS and chloroform
Procedure: as §1

EC-SOD +/+ and −/− mice [6] = assay: MAP of anesthetized mice (direct arterial cannulation) during Ang II infusion; type: in vivo, mouse; conditions: 400 ng·kg^−1·min^−1
Procedure: Cannulae were placed in the jugular vein (for infusion of fluids and renal function markers), the femoral artery (for direct measurement of MAP and HR), and the bladder (for the collection of urine). A tracheostomy was performed to permit free, uninterrupted respiration of room air. [^3H]-Inulin was infused at 0.1 μCi^−1 hr^−1 for the measurement of glomerular filtration rate. [^14C]-Para-amino hippurate (PAH) was infused at 0.2 μCi^−1 hr^−1. Blood was collected from the femoral artery and renal vein at the end of the collection period to measure hematocrit and renal PAH extraction. Renal plasma flow (RPF) was calculated from the clearance of PAH factored by its renal extraction. Renal blood flow was calculated from RPF factored by (1-hematocrit). Renal vascular resistance (RVR) was calculated from MAP factored by RBF. In separate groups, plasma was obtained, and the aorta and kidneys were harvested and prepared for further analysis.

EC-SOD +/+ and −/− mice [7] = assay: MAP of conscious mice by telemetry during subcutaneous Ang II infusion; type: in vivo, mouse; conditions: for MAP during Ang II infusion: 400 ng/kg per minute subcutaneously, 2 weeks; for Change in MAP with Ang II (mmHg) / MAP on day 12 of Ang II (mmHg): conscious, telemetry
Text: For the first series, mice were instrumented with indwelling radiotelemeters (DSI) connected to a cather in a carotid artery and placed within the abdomen 2 weeks before placement of osmotic minipumps as described previously (Kawada N, et al. 2002 J Am Soc Nephrol 13 :2860-2868). Mice were anesthetized with isoflurane (1.0 to 1.5% in 100% O2) before insertion of telemeters and allowed to recover from the surgery for 12 days before the start of BP recording. Basal recordings of MAP and heart rate (HR) were measured continuously by telemetry for 3 days. Thereafter, mice were anesthetized with isoflurane for insertion of osmotic minipumps (Direct Corp) to deliver Ang II (400 ng^−1 kg^−1 per minute) or vehicle (Veh) subcutaneously for 2 weeks. An additional group received a higher pressor rate of Ang II infusion (1000 ng/kg^−1 min^−1, SC). The mean values for 24-hour periods are reported. For subsequent series, mice were prepared without placement of telemeters and Ang II was infused only at the slow pressor rate.

[8] = test system: mesenteric resistance arteries (MRAs) from EC-SOD −/− and +/+ mice; assay: Contraction of isolated mesenteric resistance arteries (myograph)
Procedure: FIG. 19: Responses of mouse isolated mesenteric resistance vessles to endothelin-1: comparison of EC-SOD +/+ with −/−. (A) Contraction to endothelin-1, (B) Superoxide production with endothelin-1. Mean±SEM values (n=6-8 per group). Response to endothelin-1 in vessels incubated for 20 min with vehicle, tempol (10^−4 M), PEG-SOD (100 units·ml^−1), and catalase (300 units·ml^−1). Compared to vehicle, ***, p<0.005.
(§2) Reactive oxygen spice (ROS) and endothelin-1 (ET-1) contribute to angiotensin-induced hypertension. We used isolated mesenteric resistance arteries (MRAs) from EC-SOD knockout (−/−) mice (n=10) and EC-SOD wild type (+/+) mice (n=10), as a model to investigate the hypothesis that microvascular ET-1 and superoxide anion (O2.^−) interact to enhance contractility. Tension and O2.^− were quantitated in real time in dihydroethidium (DHE)-loaded MRAs in a myograph equipped with a dual-emission photon detection fluorescence system to measure ethidium (Eth): DHE ratio (E/D) as a direct readout of O2.^− activity. […] PEG-SOD normalized augmented ET-1 contraction (64±4% vs 71±3%; p=ns) and prevent an increase in E/D ratio in MRAs from −/− (0.6±0.5 vs 0.5±0.8, p=ns). In summary, ET-1 generates microvascular O2.^− that enhances its vasoconstrictive action.

[9] = test system: mesenteric resistance arteries (MRAs) from EC-SOD −/− and +/+ mice; assay: Superoxide as ethidium:DHE ratio (E/D) in dihydroethidium-loaded mesenteric resistance arteries
Text: as §2
A current study contrasts the responses to endothelin-1 (ET-1) in mesenteric resistance vessels from EC-SOD (−/−) and (+/+) mice. […] Parallel studies of vascular superoxide in dihydroethidium-loaded vessels show enhanced conversion to ethidium, indicating enhanced superoxide formation, in vessels from EC-SOD −/−mice. […] We conclude that in the model system of SOD deficiency caused by gene deletion of EC-SOD in the mouse, tempol can correct enhanced contractions and enhanced oxidative stress. It is thereby envisioned as being effective in preventing hypertension and cardiovascular disease.

[10] = EC-SOD (+/+), 400 ng·kg^−1·min^−1
[11] = EC-SOD (+/+), 1000 ng·kg^−1·min^−1
[12] = EC-SOD (−/−), 400 ng·kg^−1·min^−1
[13] = EC-SOD (−/−), 1000 ng·kg^−1·min^−1

In the case of `CC1(C)CC([N+](C)(C)C)CC(C)(C)N1[O].[I-]` [CAT-1, 4-trimethylammonium-2,2,6,6,-tetramethylpiperidine-1-oxyl iodide], the “redox midpoint potential E1/2” value [1] is listed as “significantly higher values still”, the “Maximum inhibition, %” value [2] is listed as 42 ± 2 % and the “O2−. generated by a xanthine-xanthine oxidase reaction extinguished” value (shortened to “O2−. generated”) [2] is listed as “significantly lower fraction”. The permeation of cells (cell membranes) was “does not permeate cells”, the “maximal reduction in MAP (comparison between compounds)” value (“maximal reduction in MAP” below) ([3]; graded intravenous doses) was “significantly more modest reductions” and the “acute change in MAP and HR” value [3] was “graded reductions; also recorded: decreased MAP and HR acutely”. The “ED50 (sensitivity) for changes in MAP and HR” value (from here on “ED50 (sensitivity) for changes”) [3] was “lowest ED50”.
For “Cu/Zn SOD: bovine Cu/Zn SOD (MW 32,500; Oxis Research)”, the “delay of MAP lowering versus vehicle” value ([3]; graded intravenous doses) is listed as 90 to 110 min, the “acute change in MAP and HR” value ([3]; listed as SOD) is listed as “no acute effect; also recorded: did not” and the “injected SOD associated with the kidney” value ([4]; 45 min after injection) is listed as ~10%. For the same molecule, the plasma half time ([4]; after intravenous administration) was 6 min.
In the case of `CC1(C)CC(=O)CC(C)(C)N1[O]` [OT, 4-oxo-tempo], the “ratio of the activity that partitioned into CHCl3 compared with PBS (partition ratio)” value [5] is listed as “greatest partition ratio”, the “redox midpoint potential E1/2” value [1] is listed as 913 mV and the “Maximum inhibition, %” value [2] is listed as 62 ± 2 %. The “O2−. generated” value [2] was “significantly lower fraction”, the “maximal reduction in MAP” value ([3]; graded intravenous doses) was “significantly more modest reductions” and the “reduction in HR (comparison between compounds)” value ([3]; graded intravenous doses) was “smaller”. For the same molecule, the “acute change in MAP and HR” value [3] was “graded reductions; also recorded: decreased MAP and HR acutely” and the “ED50 (sensitivity) for changes” value [3] was “highest ED50s”.
For `CC1(C)CC(C(N)=O)C(C)(C)N1[O]` (stereo not shown) [Compound 3-CP, 3-carbomoyl-proxyl], the “Maximum inhibition, %” value [2] was 82 ± 1 %, the “O2−. generated” value [2] was “significantly lower fraction” and the “acute change in MAP and HR” value [3] was “ineffective; also recorded: did not; also recorded: does not reduce BP in vivo”.
With “angiotensin II (DRVYIHPF; Angiotensin-2; UniProt P01019 25-32, looked up) [Ang II, pressor peptide infused subcutaneously by osmotic minipump]” the “MAP on day 12 of Ang II (mmHg)” value (EC-SOD +/+ and −/− mice [6]; EC-SOD (+/+)) was 92.1 ± 3.0 mmHg, the “MAP on day 12 of Ang II (mmHg)” value (EC-SOD +/+ and −/− mice [6]; EC-SOD (−/−)) was 98.4 ± 2.6 mmHg and the “MAP during Ang II infusion” value (EC-SOD +/+ and −/− mice [7]; EC-SOD +/+) was 125±3 mm Hg. For the same molecule, the “MAP during Ang II infusion” value (EC-SOD +/+ and −/− mice [7]; EC-SOD −/−) was 124±3 mm Hg, the “Change in MAP with Ang II (mmHg)” value (EC-SOD +/+ and −/− mice [7]; [10]) was “+24.4 ± 3.45 mmHg” and the “MAP on day 12 of Ang II (mmHg)” value (EC-SOD +/+ and −/− mice [7]; [10]) was 134.6 ± 3.3 mmHg. For the same molecule, the “Change in MAP with Ang II (mmHg)” value (EC-SOD +/+ and −/− mice [7]; [11]) was “+35.7 ± 6.5 mmHg”, the “MAP on day 12 of Ang II (mmHg)” value (EC-SOD +/+ and −/− mice [7]; [11]) was 149.1 ± 4.3 mmHg and the “Change in MAP with Ang II (mmHg)” value (EC-SOD +/+ and −/− mice [7]; [12]) was “+16.7 ± 4.42 mmHg”. For the same molecule, the “MAP on day 12 of Ang II (mmHg)” value (EC-SOD +/+ and −/− mice [7]; [12]) was 132.5 ± 4.1 mmHg, the “Change in MAP with Ang II (mmHg)” value (EC-SOD +/+ and −/− mice [7]; [13]) was “+30.7 ± 3.3 mmHg” and the “MAP on day 12 of Ang II (mmHg)” value (EC-SOD +/+ and −/− mice [7]; [13]) was 149.9 ± 5.4 mmHg.
For `CC1(C)CC(N)CC(C)(C)N1[O]` [AT, 4-amino-2,2,6,6-tetramethylpiperidine-1-oxyl], the “redox midpoint potential E1/2” value [1] is listed as 820 mV, the “Maximum inhibition, %” value [2] is listed as 88 ± 2 % and the “O2−. generated” value [2] is listed as 88%. The “maximal reduction in MAP” value ([3]; graded intravenous doses) was “greatest reductions in MAP”, the “acute change in MAP and HR” value [3] was “graded reductions; also recorded: decreased MAP and HR acutely” and the “ED50 (sensitivity) for changes” value [3] was “highest ED50s”.
For “endothelin-1 (CSCSSLMDKECVYFCHLDIIW; ends and bridges not checked; cysteine pairing not given here; UniProt P05305 53-73, looked up) [ET-1, vasoconstrictor peptide used to contract mesenteric resistance arteries]”, the ET-1 induced contraction ([8]; MRAs from EC-SOD +/+ mice) was 66±5%, the ET-1 induced contraction ([8]; MRAs from EC-SOD −/− mice) was 100±3% and the “E/D ratio (ethidium:DHE) with ET-1” value ([9]; MRAs from EC-SOD +/+ mice) was 0.5±0.8. For the same molecule, the “E/D ratio (ethidium:DHE) with ET-1” value ([9]; MRAs from EC-SOD −/− mice) was 3.7±0.5.
In the case of `CNC[C@H](O)c1cccc(O)c1` [Phenylephrine], the “Phenylephrine-induced contractions, EC-SOD −/− versus +/+” value ([8]; MRAs from both groups) is reported as “similar” and the “E/D ratio with phenylephrine” value ([9]; MRAs from both groups) is reported as “did not change”.
